Values of other authors in patent US11141456B2, “Therapeutic compositions including frataxin, lactoferrin, and mitochondrial energy generating enzymes, and uses thereof” (Stealth BioTherapeutics Corp, priority 2014, dated 2021).

Test system: several mammalian cell types
Settings: energy-independent manner; cited from earlier work

2′,6′-Dmt-D-Arg-Phe-Lys-NH2
penetration of the plasma membrane: readily penetrates the plasma membrane
